Data reported in patent publication US8541585B2, “N-acyl cyclic amine derivative or pharmaceutically acceptable salt thereof” (Dainippon Sumitomo Pharma Co., Ltd., priority 2010, dated 2013).

Columns and labels:
human D2L receptor = human D2L receptor (Homo sapiens, UniProt P14416); experiment: Dopamine D2L receptor binding assay ([3H]-spiperone); conditions: 10 nM test drug, [3H]-spiperone 0.5 nM, human D2L receptor-expressing CHO cell membrane; for inhibition at 0.01 µM: read-out: BINDING INHIBITION RATE (%) D2L 10 nM
Experimental: (1) Dopamine D2L Receptor Binding Assay
D2L receptor binding assay was performed in reference to a method described by Hirose et al. (Japan. J. Pharmacol., 53, 321-329, 1990). After a reaction in a total volume of 200 μL of 50 mM Tris-HCl (pH=7.6) buffer solution containing 50 μL of [^3H]-spiperone (final concentration 0.5 nM), 1 μL of test drug in DMSO, and 149 μL of human D2L receptor-expressing CHO cell membrane sample, human D2L receptor binding activity of [^3H]-spiperone was measured. The reaction solution let stand for 60 minutes at room temperature, and then it was quickly added on a glass fiber filter plate (Multiscreen FB, Millipore inc.) coated with 0.3% polyethyleneimine (PEI) and filtered under reduced pressure. The glass fiber filter was washed with 200 μL of ice-cooled 50 mM Tris-HCl (pH=7.6) twice, repeatedly filtered under reduced pressure, and then transferred to a vial containing 4 mL of Ecoscint A (National Diagnostics inc.). The residual radioactivity on the glass fiber filter was measured by a liquid scintillation counter. Nonspecific binding was measured in the presence of 10 μM of spiperone, and [^3H]-spiperone binding inhibition rate in the presence of 10 nM of test drug was determined. The larger binding inhibition rate (%) means that test drug has the higher binding affinity for human D2L receptor.

human 5-HT6 receptor = molecular target: T1, human 5-HT6 receptor (Homo sapiens, UniProt P50406); experiment: Serotonin 5-HT6 receptor binding assay ([3H]-clozapine); conditions: 100 nM test drug, [3H]-clozapine 2 nM, human 5-HT6 receptor-expressing CHO cell membrane; for inhibition at 0.1 µM: read-out: BINDING INHIBITION RATE (%) 5HT6 100 nM
T1 construct: expressed in transfected cells; host or cells: CHO cells (membrane preparation)
Experimental: (3) Serotonin 5-HT6 Receptor Binding Assay
After a reaction in a total volume of 200 μL of 50 mM Tris-HCl (pH=7.6), 4 mM CaCl2, and 0.5 mM EDTA buffer solution containing 50 μL of [^3H]-clozapine (final concentration 2 nM), 1 μL of test drug in DMSO, and 149 μL of human 5-HT6 receptor-expressing CHO cell membrane sample, human 5-HT6 receptor binding activity of [^3H]-clozapine was measured. The reaction solution let stand for 40 minutes at room temperature, and then it was quickly added on a glass fiber filter plate (Multiscreen FB, Millipore inc.) coated with 0.3% polyethyleneimine (PEI) and filtered under reduced pressure. The glass fiber filter was washed with 200 μL of ice-cooled 50 mM Tris-HCl (pH=7.6) twice, repeatedly filtered under reduced pressure, and then transferred to a vial containing 4 mL of Ecoscint A (National Diagnostics inc.). The residual radioactivity on the glass fiber filter was measured by a liquid scintillation counter. Nonspecific binding was measured in the presence of 10 μM of SB-258585, and [^3H]-clozapine binding inhibition rate in the presence of 100 nM of test drug was determined.

human 5-HT2A receptor = molecular target: T2, human 5-HT2A receptor (Homo sapiens, UniProt P28223); experiment: Serotonin 5-HT2A receptor binding assay ([3H]-ketanserin); conditions: [3H]-ketanserin 1 nM, human 5-HT2A receptor-expressing CHO cell membrane; for inhibition at 0.01 µM: 10 nM test drug, read-out: BINDING INHIBITION RATE (%) 5HT2A 10 nM
T2 construct: expressed in transfected cells; host or cells: CHO cells (membrane preparation)
Experimental: (2) Serotonin 5-HT2A Receptor Binding Assay
5-HT2A receptor binding assay was performed in reference to a method described by Hirose et al. (Japan. J. Pharmacol., 53, 321-329, 1990). After a reaction in a total volume of 200 μL of 50 mM Tris-HCl (pH=7.6) buffer solution containing 50 μL of [^3H]-ketanserin (final concentration 1 nM), 1 μL of test drug in DMSO, and 149 μL of human 5-HT2A receptor-expressing CHO cell membrane sample, human 5-HT2A receptor binding activity of [^3H]-ketanserin was measured. The reaction solution let stand for 15 minutes at 37° C., and then it was quickly added on a glass fiber filter plate (Multiscreen FB, Millipore inc.) coated with 0.05% Brij 35 and filtered under reduced pressure. The glass fiber filter was washed with 200 μL of ice-cooled 50 mM Tris-HCl (pH=7.6) twice, repeatedly filtered under reduced pressure, and then transferred to a vial containing 4 mL of Ecoscint A (National Diagnostics inc.). The residual radioactivity on the glass fiber filter was measured by a liquid scintillation counter. Nonspecific binding was measured in the presence of 10 μM of MDL-100907, and [^3H]-ketanserin binding inhibition rate in the presence of 1 nM or 10 nM of test drug was determined.

human α1D receptor = molecular target: T3, human α1D receptor (Homo sapiens, UniProt P25100); experiment: Adrenaline α1D receptor binding assay ([3H]-prazosin); conditions: 100 nM test drug, [3H]-prazosin 0.6 nM, human α1D receptor-expressing CHO cell membrane; for inhibition at 0.1 µM: read-out: BINDING INHIBITION RATE (%) α1D 100 nM
T3 construct: expressed in transfected cells; host or cells: CHO cells (membrane preparation)
T3 sequence (P25100 1-572): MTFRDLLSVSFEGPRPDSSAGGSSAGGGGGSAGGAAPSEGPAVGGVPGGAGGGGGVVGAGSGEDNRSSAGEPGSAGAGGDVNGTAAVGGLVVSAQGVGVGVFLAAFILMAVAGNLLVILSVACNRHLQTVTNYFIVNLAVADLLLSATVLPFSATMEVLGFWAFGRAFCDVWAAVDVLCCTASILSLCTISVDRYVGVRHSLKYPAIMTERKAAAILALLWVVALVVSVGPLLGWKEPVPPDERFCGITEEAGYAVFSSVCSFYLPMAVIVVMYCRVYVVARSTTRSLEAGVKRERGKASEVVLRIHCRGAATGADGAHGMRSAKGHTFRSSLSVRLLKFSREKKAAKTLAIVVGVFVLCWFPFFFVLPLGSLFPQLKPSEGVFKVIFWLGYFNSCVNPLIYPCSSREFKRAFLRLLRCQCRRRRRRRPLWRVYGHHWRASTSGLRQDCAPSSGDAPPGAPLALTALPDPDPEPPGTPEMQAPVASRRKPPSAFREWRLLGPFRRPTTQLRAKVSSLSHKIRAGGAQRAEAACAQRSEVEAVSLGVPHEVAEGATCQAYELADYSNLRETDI
Experimental: (4) Adrenaline α1D Receptor Binding Assay
After a reaction in a total volume of 200 μL of 50 mM Tris-HCl (pH=7.6) buffer solution containing 50 μL of [^3H]-prazosin (final concentration 0.6 nM), 1 μL of test drug in DMSO, and 149 μL of human α1D receptor-expressing CHO cell membrane sample, human α1D receptor binding activity of [^3H]-prazosin was measured. The reaction solution let stand for 30 minutes at room temperature, and then it was quickly added on a glass fiber filter plate (Multiscreen FB, Millipore inc.) coated with 0.3% polyethyleneimine (PEI) and filtered under reduced pressure. The glass fiber filter was washed with 200 μL of ice-cooled 50 mM Tris-HCl (pH=7.6) twice, repeatedly filtered under reduced pressure, and then transferred to a vial containing 4 mL of Ecoscint A (National Diagnostics inc.). The residual radioactivity on the glass fiber filter was measured by a liquid scintillation counter. Nonspecific binding was measured in the presence of 1 μM of prazosin, and [^3H]-prazosin binding inhibition rate in the presence of 100 nM of test drug was determined.

T1 sequence (P50406 whole entry): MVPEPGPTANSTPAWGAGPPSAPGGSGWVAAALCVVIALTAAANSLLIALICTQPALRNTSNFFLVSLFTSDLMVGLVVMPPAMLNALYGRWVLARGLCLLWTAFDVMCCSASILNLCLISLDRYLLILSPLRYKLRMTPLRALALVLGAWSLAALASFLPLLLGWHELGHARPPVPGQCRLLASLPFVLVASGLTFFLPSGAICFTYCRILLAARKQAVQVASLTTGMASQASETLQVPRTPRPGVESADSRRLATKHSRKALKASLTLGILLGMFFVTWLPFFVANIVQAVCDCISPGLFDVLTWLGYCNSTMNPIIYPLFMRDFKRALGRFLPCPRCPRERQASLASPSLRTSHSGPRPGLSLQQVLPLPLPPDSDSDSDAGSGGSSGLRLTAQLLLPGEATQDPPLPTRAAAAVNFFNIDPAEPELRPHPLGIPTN
human D2L receptor, sequence (P14416 whole entry): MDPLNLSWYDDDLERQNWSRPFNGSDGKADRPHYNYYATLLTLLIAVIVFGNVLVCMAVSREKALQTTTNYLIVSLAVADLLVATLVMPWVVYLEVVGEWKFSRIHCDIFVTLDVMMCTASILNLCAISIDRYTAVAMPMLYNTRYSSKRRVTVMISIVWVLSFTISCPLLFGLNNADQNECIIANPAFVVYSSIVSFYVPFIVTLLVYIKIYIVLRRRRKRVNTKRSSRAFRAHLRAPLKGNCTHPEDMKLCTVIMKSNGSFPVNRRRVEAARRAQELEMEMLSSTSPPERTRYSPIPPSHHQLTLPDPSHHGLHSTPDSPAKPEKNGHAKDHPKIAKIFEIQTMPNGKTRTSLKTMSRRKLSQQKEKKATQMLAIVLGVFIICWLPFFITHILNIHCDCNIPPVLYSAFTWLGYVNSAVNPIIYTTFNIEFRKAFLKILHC
T2 sequence (P28223 whole entry): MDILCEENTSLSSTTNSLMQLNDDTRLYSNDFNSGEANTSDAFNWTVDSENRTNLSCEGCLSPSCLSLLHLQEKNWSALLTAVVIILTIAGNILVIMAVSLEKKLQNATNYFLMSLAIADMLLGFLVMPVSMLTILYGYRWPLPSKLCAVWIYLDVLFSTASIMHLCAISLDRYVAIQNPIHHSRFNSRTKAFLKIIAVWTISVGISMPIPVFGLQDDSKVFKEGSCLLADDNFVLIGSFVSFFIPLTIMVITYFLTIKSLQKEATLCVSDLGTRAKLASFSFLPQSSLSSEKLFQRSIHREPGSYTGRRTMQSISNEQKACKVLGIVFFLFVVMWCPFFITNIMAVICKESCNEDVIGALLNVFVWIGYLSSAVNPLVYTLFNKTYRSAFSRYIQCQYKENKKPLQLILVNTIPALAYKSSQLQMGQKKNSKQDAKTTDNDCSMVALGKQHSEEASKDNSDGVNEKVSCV

| inhibition at 0.01 µM (human D2L receptor) [%] | inhibition at 0.1 µM (human 5-HT6 receptor) [%] | inhibition at 0.1 µM (human α1D receptor) [%] | Compound | inhibition at 0.001 µM (human 5-HT2A receptor; 1 nM test drug, read-out: BINDING INHIBITION RATE (%) 5HT2A 1 nM) [%] | inhibition at 0.01 µM (human 5-HT2A receptor) [%] | BINDING INHIBITION RATE (%) D2L 10 nM (human D2L receptor) [%] | BINDING INHIBITION RATE (%) 5HT6 100 nM (human 5-HT6 receptor) [%] | BINDING INHIBITION RATE (%) α1D 100 nM (human α1D receptor) [%] |
| --- | --- | --- | --- | --- | --- | --- | --- | --- |
| 75 | 92 | 89 | O=C(/C=C/c1ccc2c(c1)OCO2)N1CCC[C@H](CCN2CCC(c3noc4cc(F)ccc34)CC2)C1 [Example 14] | – | – | – | – | – |
| 26 | 85 | – | O=C(c1cc2ccc(F)cc2[nH]1)N1CCC[C@H](CN2CCN(c3n[nH]c4ccccc34)CC2)C1 [Example 22] | – | – | – | – | – |
| 88 | 98 | 64 | Cc1ccc2cc(C(=O)N3CCC[C@H]3CCN3CCN(c4n[nH]c5cc(F)ccc45)CC3)[nH]c2c1 [Example 24] | – | – | – | – | – |
| 28 | 82 | – | Cc1ccc2cc(C(=O)N3CCC[C@H]3CCN3CCN(c4n[nH]c5ccc(F)cc45)CC3)[nH]c2c1 [Example 25] | – | – | – | – | – |
| 85 | 78 | 81 | O=C(c1cc2cc(O)ccc2[nH]1)N1CCOC[C@H]1CCN1CCC(c2c[nH]c3ccccc23)CC1 [Example 41] | – | – | – | – | – |
| 72 | 94 | 85 | O=C(c1ccc(F)cc1)C1CCN(CC[C@@H]2CCCN2C(=O)c2[nH]c3ccccc3c2-c2ccccc2)CC1 [Example 47] | – | – | – | – | – |
| 82 | 97 | 40 | O=C(c1ccc(F)cc1)C1CCN(CC[C@@H]2CCCN2C(=O)c2cc3ccccc3n2C2CCOCC2)CC1 [Example 48] | – | – | – | – | – |
| 83 | 75 | 30 | O=C(c1ccc(F)cc1)C1CCN(CC[C@@H]2CCCN2C(=O)c2cc3ccccc3n2-c2ccncc2)CC1 [Example 49] | – | – | – | – | – |
| 89 | 94 | 48 | Cc1ccc2cc(C(=O)N3C[C@H](F)C[C@H]3CCN3CCC(C(=O)c4ccc(F)cc4)CC3)[nH]c2c1 [Example 53] | – | – | – | – | – |
| 83 | 100 | – | N#CCCc1ccc2c(Cl)c(C(=O)N3CCC[C@H]3CCN3CCC(C(=O)c4ccc(F)cc4)CC3)[nH]c2c1 [Example 55] | – | – | – | – | – |
| 69 | 86 | 76 | O=C(c1cccc(-c2ccccc2)c1)N1CCC[C@@H](CCN2CCN(c3nsc4ccccc34)CC2)C1 [Example 57] | – | – | – | – | – |
| 0 | 17 | – | CC(=O)Nc1cccc2cc(C(=O)N3CCC[C@H]3CCN3CCC(C(=O)c4ccc(F)cc4)CC3)n(C)c12 [Example 63] | – | – | – | – | – |
| 88 | 97 | 62 | Cc1ccc2cc(C(=O)N3[C@H](CCN4CCC(C(=O)c5ccc(F)cc5)CC4)CC[C@@H]3C)[nH]c2c1 [Example 166, ((2S,5S)-2-(2-(4-(4-Fluorobenzoyl)piperidin-1-yl)ethyl)-5-methylpyrrolidin-1-yl)(6-methyl-1H-indol-2-yl)methanone] | – | – | – | – | – |
| 75 | 95 | 33 | C[C@H]1CC[C@@H](CCN2CCC(C(=O)c3ccc(F)cc3)CC2)N1C(=O)c1cc2ccc(C(F)(F)F)cc2[nH]1 [Example 167, ((2S,5S)-2-(2-(4-(4-Fluorobenzoyl)piperidin-1-yl)ethyl)-5-methylpyrrolidin-1-yl)(6-(trifluoromethyl)-1H-indol-2-yl)methanone] | – | – | – | – | – |
| 81 | 94 | 61 | C[C@H]1CC[C@@H](CCN2CCC(C(=O)c3ccc(F)cc3)CC2)N1C(=O)c1cc2ccc(SC(F)(F)F)cc2[nH]1 [Example 168, ((2S,5S)-2-(2-(4-(4-Fluorobenzoyl)piperidin-1-yl)ethyl)-5-methylpyrrolidin-1-yl)(6-(trifluoromethylthio)-1H-indol-2-yl)methanone] | – | – | – | – | – |
| – | – | – | (S)-(2-(2-(4-(6-Fluorobenzo[d]isoxazol-3-yl)piperidin-1-yl)ethyl)pyrrolidin-1-yl)(3-phenyl-1H-pyrazol-5-yl)methanone hydrochloride [Example 170] | – | – | 87 | 95 | 83 |

| Compound | inhibition at 0.01 µM (human D2L receptor) [%] | inhibition at 0.1 µM (human 5-HT6 receptor) [%] | inhibition at 0.1 µM (human α1D receptor) [%] | inhibition at 0.001 µM (human 5-HT2A receptor; 1 nM test drug, read-out: BINDING INHIBITION RATE (%) 5HT2A 1 nM) [%] | inhibition at 0.01 µM (human 5-HT2A receptor) [%] | BINDING INHIBITION RATE (%) D2L 10 nM (human D2L receptor) [%] | BINDING INHIBITION RATE (%) 5HT6 100 nM (human 5-HT6 receptor) [%] | BINDING INHIBITION RATE (%) α1D 100 nM (human α1D receptor) [%] |
| --- | --- | --- | --- | --- | --- | --- | --- | --- |
| Cc1ccc2cc(C(=O)N3CCC[C@H]3CCN3CCC(C(=O)c4ccc(F)cc4)CC3)[nH]c2c1 [Example 1, (S)-(2-(2-(4-(4-Fluorobenzoyl)piperidin-1-yl)ethyl)pyrrolidin-1-yl)(6-methyl-1H-indol-2-yl)methanone] | 91 | 96 | 68 | 73 | – | – | – | – |
| COc1ccc2[nH]c(C(=O)N3CCCC[C@H]3CCN3CCC(c4coc5cc(F)ccc45)CC3)cc2c1 [Example 30] | 92 | 65 | – | – | 95 | – | – | – |
| CCOCCO[C@@H]1C[C@@H](CCN2CCC(c3c[nH]c4ccccc34)CC2)N(C(=O)c2cc3ccc(OC)cc3[nH]2)C1 [Example 37] | 0 | 78 | – | – | 91 | – | – | – |
